Earlier results on one compound are cited in patent US20020148003A1, “Transgenic plant or plants with a naturally high water content overproducing at least two amino acids of the aspartate family” (AVEBE, priority 1996, published 2002).

For one data set, the target named is E. coli DHPS (Escherichia coli, UniProt P0A6L2). The conditions noted are these: lysine inhibition, read-out: I50 of E. coli DHPS for lysine.
The target in data set [1] is plant aspartate kinase (AK) sensitive to lysine. The conditions noted are these: plant AKs, lysine inhibition; read-out: I50 of plant AKs sensitive to lysine.
Data set [2] deals with plant dihydrodipicolinate synthase (DHPS).

Chain of E. coli DHPS (P0A6L2 whole entry): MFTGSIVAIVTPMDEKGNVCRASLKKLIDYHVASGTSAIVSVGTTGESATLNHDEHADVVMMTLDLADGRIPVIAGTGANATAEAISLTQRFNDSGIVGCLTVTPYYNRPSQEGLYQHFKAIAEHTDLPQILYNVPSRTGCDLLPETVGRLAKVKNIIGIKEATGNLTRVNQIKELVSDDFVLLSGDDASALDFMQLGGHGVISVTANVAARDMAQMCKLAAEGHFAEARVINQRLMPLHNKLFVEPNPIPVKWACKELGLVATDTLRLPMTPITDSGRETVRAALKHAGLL

For the compound `NCCCC[C@H](N)C(=O)O` [lysine], the IC50 on E. coli DHPS was roughly 1000 µM; in data set [1], 100 to 700 µM; in data set [2] (plant DHPS, feedback inhibition by end product, read-out: I50 of DHPS for lysine), 10 to 50 µM. Further, in data set [2] (plant DHPS more sensitive than E. coli DHPS), the “sensitivity to lysine inhibition, plant DHPS versus E. coli DHPS” value was “about 100 fold”. Further, the “sensitivity to lysine inhibition, plant DHPS versus plant AKs” value in data set [2] (plant DHPS more sensitive than lysine-sensitive plant AKs) is listed as “about 10 fold”.
